Reference: PMC8279416, “Structural Fine-Tuning of Desmuramylpeptide NOD2 Agonists Defines Their In Vivo Adjuvant Activity” (Journal of Medicinal Chemistry, 2021)
“And” between values parts separate entries of the source, which are not always exact repeats. Identical values can stand only once.

Key:
NIH/OlaHsd mice [1] = experiment: In vivo ovalbumin-specific antibody response, second experiment (neutral, anionic, mannosylated liposomes); parameters: species or system mouse; details: for Ovalbumin-specific IgG response (in words): 0.15 μmol adjuvant per dose; for Log10 (anti-OVA IgG1/anti-OVA IgG2a): second in vivo experiment, 0.15 μmol adjuvant, one week after second booster, mean ± SEM of 5 mice
Description: To determine whether the adjuvanticity of 75 can be modulated through changes to the liposomal formulation, a second in vivo experiment was designed in which the adjuvant activities of three different liposomal compositions were compared. Neutral liposomes were prepared from egg phosphatidylcholine and cholesterol.
(§1) Multilamellar liposomes were prepared by the modified thin lipid film method as described previously.[130],[131] For the preparation of neutral liposomes, a 7:5 molar ratio of egg-phosphatidylcholine and cholesterol was used. For the preparation of negatively charged liposomes, a 7:5:1 molar ratio of egg-phosphatidylcholine, cholesterol, and dicetylphosphate was used, while a 7:5:0.5 molar ratio of egg-phosphatidylcholine, cholesterol, and Man-PEG-Pam was used in the preparation of mannosylated liposomes. Lipids (total lipid concentration, 4 mg/mL) were dissolved in chloroform/methanol (2:1). A methanol or chloroform/methanol solution of MDP or the desmuramylpeptides was added to the lipid solution for a final concentration of 2 mM and 1.5 mM for the first (Figure 10) and second (Figure 11) experiments, respectively. After rotary evaporation of the solvent, the remaining lipid film was dried in vacuum for 1 h and then dispersed by gentle handshaking in an ovalbumin solution in saline (0.0667 and 0.1 mg/mL for the first and second experiments, respectively). This was then left overnight at 4 °C to swell and stabilize. Liposome size was reduced by sonification. Nonentrapped material was not separated from liposomes, and the complete liposome suspension was used for immunizations.
(§2) For the first experiment (Figure 10), sex-matched NIH/OlaHsd mice (five per group) were immunized subcutaneously in the tail base and boosted one time after 21 days. The injection volume in all experimental groups was 0.15 mL per mouse, which corresponds to 10 μg of OVA, […], and 0.30 μmol of MDP and desmuramylpeptides. For the second experiment (Figure 11), sex-matched NIH/OlaHsd mice (five per group) were immunized and boosted two times subcutaneously into the tail base at 21-day intervals. The injection volume in all experimental groups was 0.1 mL per mouse, which corresponds to 10 μg of OVA, 400 μg of lipids, and 0.15 μmol of MDP and 75. The mice were anesthetized with ip application of ketamine/xylazine (25 mg/kg each) prior to blood collection from the axillary plexus on the seventh day after the last booster dose. Individual serum from each animal was decomplemented at 56 °C for 30 min and then stored at −20 °C until tested.
(§3) ELISA assays were performed as detailed previously.[46] Briefly, high-binding ELISA plates (Costar, U.S.A.) were coated with a 15 μg/mL solution of ovalbumin in carbonate buffer, pH 9.6, and incubated overnight at room temperature. Nonspecific antibody binding was blocked with 0.5% w/v bovine serum albumin in PBS-T (0.05% (v/v) Tween 20 in phosphate-buffered saline) for 2 h at 37 °C. After washing, five serial dilutions of mice sera and standard preparations were added in duplicate. Plates were incubated overnight at room temperature, washed, and analyzed for ovalbumin-specific IgG levels by incubation with HRP-conjugated goat anti-mouse IgG (2 h at 37 °C) and then, after washing, with 0.6 mg/mL o-phenylenediaminedihydrochloride solution in citrate-phosphate buffer, pH 5.0, with 0.5 μL of 30% H2O2 per milliliter for 30 min at room temperature in the dark. The enzymatic reaction was stopped with 12.5% H2SO4, and absorbance at 492 nm was measured using a microplate reader (Thermo Fisher Scientific, Waltham, MA, U.S.A.). For the determination of ovalbumin-specific IgG1 and IgG2a, the plates were incubated with biotin-conjugated rat anti-mouse IgG1 or IgG2a (2 h at 37 °C) and subsequently with streptavidin–peroxidase for another 2 h at 37 °C. After washing, the substrate solution was added and incubated for 30 min at room temperature in the dark, as described above. […]

NOD2 = target: T1, NOD2 (Homo sapiens, UniProt Q9HC29); experiment: HEK-Blue NOD2 cell line reporter assay (NF-κB-inducible SEAP); assay type: cell-based; details: for NOD2 activity at 2 μM (fold increase) / EC50: 18 h, mean ± SEM; for NOD2 activity at 2 μM (fold increase): NF-κB transcriptional (SEAP) activity relative to 0.1% DMSO; for EC50: 7 or 8 concentrations 1 nM to 20 μM
T1 construct: host or cells: HEK-Blue NOD2 cells (HEK293-derived)
Description: To determine the NOD2 agonistic potential of the synthesized desmuramylpeptides at the cellular level, we used the validated and commercially available HEK-Blue NOD2 cell line reporter assay. HEK-Blue NOD2 cells were first treated for 18 h with MDP, 1, or the novel desmuramylpeptides at 2 μM. The NF-κB transcriptional activity measured was normalized to that of the vehicle treated (0.1% DMSO) control HEK-Blue NOD2 cells.
HEK-Blue NOD2 and NOD1 cell line reporter assays are derived from HEK293 cells by cotransfection of the hNOD2 or hNOD1 genes, respectively, and an NF-κB-inducible secreted embryonic alkaline phosphatase (SEAP) reporter gene. Following activation of NOD2 or NOD1, the resulting NF-κB induces production of SEAP, the levels of which can be quantified colorimetrically. […] After 18 h of incubation (37 °C, 5% CO2), secreted embryonic alkaline phosphatase (SEAP) activity was determined spectrophotometrically as absorbance at 630 nm (BioTek Synergy microplate reader; Winooski, VT, U.S.A.). EC50 values were calculated using Prism software (version 9; GraphPad Software, CA, U.S.A.). For determination of specificity, HEK-Blue NOD2 cells (2.5 × 10^5 cells/mL) were first pretreated for 1 h with a 10 μM NOD2 antagonist, before the addition of the compounds (2 μM), with incubation for 18 h. SEAP activity in the supernatants was determined as above. The experiments were run in duplicate and repeated as at least two independent biological replicates.

NIH/OlaHsd mice [2] = experiment: In vivo ovalbumin-specific antibody response, first experiment (neutral liposomes); parameters: species or system mouse
Description: To determine whether enhanced antigen presentation in vitro is correlated to in vivo adjuvant activities, an immunization study was performed in a murine model of adjuvanticity. Specifically, the selected desmuramylpeptides were investigated for induction of systemic immune responses against the model antigen ovalbumin. Seven groups of NIH/OlaHsd mice were immunized with ovalbumin-containing neutral liposomes, either alone or with additional adjuvants of MDP or the desmuramylpeptides 1, 68, 74, 75, or 81. After immunization and one booster dose, the mice sera were collected and assayed for ovalbumin-specific IgG antibodies (Figure 10).
as §1, §2
as §3, with “U.S.A.).” for “U.S.A.). For the determination of ovalbumin-specific IgG1 and IgG2a, the plates were incubated with biotin-conjugated rat anti-mouse IgG1 or IgG2a (2 h at 37 °C) and subsequently with streptavidin–peroxidase for another 2 h at 37 °C. After washing, the substrate solution was added and incubated for 30 min at room temperature in the dark, as described above.”

[3] = neutral liposomes, 0.30 μmol adjuvant per dose, 1 week after booster

T1 sequence (Q9HC29 whole entry): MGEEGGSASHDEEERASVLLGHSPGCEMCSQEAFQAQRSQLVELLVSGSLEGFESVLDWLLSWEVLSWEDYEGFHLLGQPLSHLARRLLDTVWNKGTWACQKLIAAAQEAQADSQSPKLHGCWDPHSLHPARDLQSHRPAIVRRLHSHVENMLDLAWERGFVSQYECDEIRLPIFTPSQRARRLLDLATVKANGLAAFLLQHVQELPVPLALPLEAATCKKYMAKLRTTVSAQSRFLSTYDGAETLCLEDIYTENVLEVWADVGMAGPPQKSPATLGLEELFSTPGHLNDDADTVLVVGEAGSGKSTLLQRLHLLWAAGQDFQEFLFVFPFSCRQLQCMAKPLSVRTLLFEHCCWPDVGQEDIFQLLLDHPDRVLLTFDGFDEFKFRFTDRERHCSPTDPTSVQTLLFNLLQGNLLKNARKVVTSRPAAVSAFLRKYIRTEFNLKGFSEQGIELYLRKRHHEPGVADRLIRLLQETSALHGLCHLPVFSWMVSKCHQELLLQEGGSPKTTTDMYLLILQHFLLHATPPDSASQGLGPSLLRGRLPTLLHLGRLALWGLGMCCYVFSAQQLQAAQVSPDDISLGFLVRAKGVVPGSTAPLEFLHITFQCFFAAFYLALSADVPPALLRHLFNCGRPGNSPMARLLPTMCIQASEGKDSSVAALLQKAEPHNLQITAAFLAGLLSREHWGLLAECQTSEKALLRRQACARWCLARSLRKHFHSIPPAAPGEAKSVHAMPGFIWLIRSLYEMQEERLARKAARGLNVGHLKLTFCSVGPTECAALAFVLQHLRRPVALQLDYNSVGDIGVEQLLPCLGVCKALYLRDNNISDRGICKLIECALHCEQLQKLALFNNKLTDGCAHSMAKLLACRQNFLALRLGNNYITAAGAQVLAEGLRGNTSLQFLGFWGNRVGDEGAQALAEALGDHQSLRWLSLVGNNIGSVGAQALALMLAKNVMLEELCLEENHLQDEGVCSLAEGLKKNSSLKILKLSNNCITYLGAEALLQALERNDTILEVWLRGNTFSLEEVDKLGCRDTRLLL

| NOD2 activity at 2 μM (fold increase) (NOD2; HEK-Blue NOD2 cells) | EC50 (NOD2; HEK-Blue NOD2 cells) [nM] | Structure (SMILES) | further results |
| --- | --- | --- | --- |
| 1.32 ± 0.05 fold increase |  | CCCCNC(=O)CC[C@@H](NC(=O)[C@@H](NC(=O)CNC(=O)/C=C/c1ccc(O)c(OC)c1)C(C)C)C(=O)OC(C)(C)C [Compound 59, tert-Butyl N^5-Butyl-N^2-((E)-3-(4-hydroxy-3-methoxyphenyl)acryloyl)glycyl-L-valyl-D-glutaminate] |  |
| 1.54 ± 0.02 fold increase | 12500 ± 1220 | CCOC(=O)CC[C@@H](NC(=O)[C@@H](NC(=O)CNC(=O)/C=C/c1ccc(O)c(OC)c1)[C@@H](C)O)C(=O)OCC [Compound 32, Diethyl ((E)-3-(4-Hydroxy-3-methoxyphenyl)acryloyl)glycyl-L-threonyl-D-glutamate] |  |
| 2.63 ± 0.15 fold increase | 322 ± 7 | CCOC(=O)CC[C@@H](NC(=O)[C@@H](NC(=O)CNC(=O)C1CC1c1ccc(OC)c(OC)c1)C(C)C)C(=O)OCC (stereo partly drawn) [Compound 27, Diethyl (2-(3,4-Dimethoxyphenyl)cyclopropane-1-carbonyl)glycyl-L-valyl-D-glutamate] | Improved potency over 20 (NOD2; ratio of EC50 versus compound 20): 2.4 fold |

Further lines, the compound ahead of its results:

| Structure (SMILES) | NOD2 activity at 2 μM (fold increase) (NOD2; HEK-Blue NOD2 cells) | EC50 (NOD2; HEK-Blue NOD2 cells) [nM] | further results |
| --- | --- | --- | --- |
| CC(=O)N[C@H]1C(O)O[C@H](CO)[C@@H](O)[C@@H]1O[C@H](C)C(=O)N[C@@H](C)C(=O)N[C@H](CCC(=O)O)C(N)=O (stereo partly drawn) [MDP, muramyl dipeptide, reference compound] | 2.83 fold increase and 2.83 ± 0.16 fold increase | 148 ± 26 | Ovalbumin-specific IgG2a response (in words) (NIH/OlaHsd mice [1]; all liposomal compositions, compared to liposomes without adjuvant): remained unchanged; Ovalbumin-specific IgG response (in words) (NIH/OlaHsd mice [1]; mannosylated liposomes): strongest immunogenicity; Ovalbumin-specific IgG response (in words) (NIH/OlaHsd mice [1]; negatively charged liposomes): stronger IgG response; Ovalbumin-specific IgG response (in words) (NIH/OlaHsd mice [1]; neutral liposomes): weakest adjuvant activities; Log10 (anti-OVA IgG1/anti-OVA IgG2a) (NIH/OlaHsd mice [1]; anionic liposomes): 2.85 ± 0.10; Log10 (anti-OVA IgG1/anti-OVA IgG2a) (NIH/OlaHsd mice [1]; mannosylated liposomes): 2.48 ± 0.19; Log10 (anti-OVA IgG1/anti-OVA IgG2a) (NIH/OlaHsd mice [1]; neutral liposomes): 3.02 ± 0.17; Log10 (anti-OVA IgG1/anti-OVA IgG2a) (NIH/OlaHsd mice [2]; first in vivo experiment, one week after the booster dose, mean ± SEM of 5 mice): 2.43 ± 0.25; Ovalbumin-specific IgG1 response (in words) (NIH/OlaHsd mice [2]; [3]): significant increases in IgG1 generation; Ovalbumin-specific IgG2a response (in words) (NIH/OlaHsd mice [2]; [3]): only marginal increases in IgG2a; Adjuvant activity: ovalbumin-specific IgG (in words) (NIH/OlaHsd mice [2]; neutral liposomes, 0.30 μmol adjuvant per dose, s.c., 1 week after booster): moderately enhanced |
| CCOC(=O)CC[C@@H](NC(=O)[C@@H](NC(=O)CNC(=O)/C=C/c1ccc([N+](=O)[O-])cc1)C(C)C)C(=O)OCC [Compound 26, Diethyl ((E)-3-(4-Nitrophenyl)acryloyl)glycyl-L-valyl-D-glutamate] | 3.02 ± 0.07 fold increase | 49 ± 4 |  |
| COc1cc(/C=C/C(=O)NCC(=O)N[C@H](C(=O)N[C@H](CCC(=O)N(C)OC)C(=O)OC(C)(C)C)C(C)C)ccc1O [Compound 61, tert-Butyl N^2-((E)-3-(4-Hydroxy-3-methoxyphenyl)acryloyl)glycyl-L-valyl-N^5-methoxy-N^5-methyl-D-glutaminate] | 1.33 ± 0.03 fold increase |  |  |
| CCCCCCCCCCCC(=O)Oc1ccc(/C=C/C(=O)NCC(=O)N[C@H](C(=O)N[C@H](CCC(=O)OC2CCCC2)C(=O)OC2CCCC2)C(C)C)cc1OC [Compound 77, Dicyclopentyl ((E)-3-(4-(Dodecanoyloxy)-3-methoxyphenyl)acryloyl)glycyl-L-valyl-D-glutamate] | 2.56 ± 0.12 fold increase | 243 ± 50 |  |
| COc1cc(/C=C/C(=O)NCC(=O)N[C@H](C(=O)N[C@H](CCC(=O)OC(C)(C)C)C(=O)N(C)OC)C(C)C)ccc1O [Compound 63, tert-Butyl (R)-4-((S)-2-(2-((E)-3-(4-Hydroxy-3-methoxyphenyl)acrylamido)acetamido)-3-methylbutanamido)-5-(methoxy(methyl)amino)-5-oxopentanoate] | 1.36 ± 0.05 fold increase |  |  |
| CCNC(=O)CC[C@@H](NC(=O)[C@@H](NC(=O)CNC(=O)/C=C/c1ccc(O)c(OC)c1)C(C)C)C(=O)NCC [Compound 57, (R)-N^1,N^5-Diethyl-2-((S)-2-(2-((E)-3-(4-hydroxy-3-methoxyphenyl)acrylamido)acetamido)-3-methylbutanamido)pentanediamide] | 1.45 ± 0.05 fold increase |  | NOD2 activation (in words) (NOD2; HEK-Blue NOD2 cells, compound alone): substantially diminished activity |
